Tests used:
[1] = target: T1, human MPO embedded in Matrigel (Homo sapiens, UniProt P05164); assay: MPO/Matrigel implant mouse model, T1-weighted MR imaging; type: in vivo; conditions: mice, right MPO/Matrigel vs left control, 1.5 T
T1 construct: purchased BioDesign, Inc
T1 sequence (P05164 49-745): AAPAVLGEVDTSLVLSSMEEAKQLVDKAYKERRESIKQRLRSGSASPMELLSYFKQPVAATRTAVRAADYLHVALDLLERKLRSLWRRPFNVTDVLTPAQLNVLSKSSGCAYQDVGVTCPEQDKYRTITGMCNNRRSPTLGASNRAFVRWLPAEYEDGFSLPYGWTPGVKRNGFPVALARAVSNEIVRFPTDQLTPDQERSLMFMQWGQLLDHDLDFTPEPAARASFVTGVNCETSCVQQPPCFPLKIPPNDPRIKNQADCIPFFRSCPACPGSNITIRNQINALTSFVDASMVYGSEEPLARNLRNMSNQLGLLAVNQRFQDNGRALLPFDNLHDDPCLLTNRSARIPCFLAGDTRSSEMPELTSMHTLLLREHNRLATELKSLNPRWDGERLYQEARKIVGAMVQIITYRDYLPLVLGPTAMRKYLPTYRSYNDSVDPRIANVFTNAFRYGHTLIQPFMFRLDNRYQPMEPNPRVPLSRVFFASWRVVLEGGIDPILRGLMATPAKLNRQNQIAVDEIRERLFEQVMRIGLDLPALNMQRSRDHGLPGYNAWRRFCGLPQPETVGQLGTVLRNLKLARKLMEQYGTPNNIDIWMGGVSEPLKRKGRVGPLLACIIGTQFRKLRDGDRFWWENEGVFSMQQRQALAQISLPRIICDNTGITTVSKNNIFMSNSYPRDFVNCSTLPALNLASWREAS
Procedure: To evaluate the monomeric substrates in vivo, we devised a mouse model that harbored 400 μL of Matrigel basement membrane matrix gel mixed 1:1 by volume with a solution containing 15 U of human MPO and glucose oxidase (as a source of hydrogen peroxide) that was injected into the right flank of the mouse. The left flank was injected with the enzyme-free Matrigel mixture. We subsequently performed T1-weighted MR imaging after the intravenous injection of Gd-DTPA-diSer substrate at the dose of […].
(§1) The MR imaging experiments were performed on a 1.5 T GE Excite scanner and a 4.7 T Bruker Pharmascan scanner. For all MR imaging experiments, precontrast T2-(TR=2000, TE=100, ETL=8, NEX=4, fast spin echo sequence) and T1-weighted images (TR=500, TE=11, NEX=4, spin echo sequence) with fat saturation were initially performed to locate the gels or area of inflammation. The substrates (0.3 mmol/kg) were subsequently injected via the tail vein of the mouse. The mouse was immediately imaged after the injection of the contrast agent using multiple T1-weighted sequences with fat saturation for at least 3 hours.
Ten-week old C57BL6 male mice were obtained from Jackson Laboratories. A total of 22 mice were used for the study. • 1. MPO/Matrigel imaging experiments: Matrigel™ (Beckton-Dickinson), a […] basement membrane matrix gel was used to immobilize human MPO and glucose oxidase (to supply H2O2 required for detecting MPO oxidative activity, Calbiochem). This was chosen to reflect deposits of human MPO in inflamed tissue in a mouse model. 400 μL of a mixture of Matrigel™ and MEM (Cambrex) was injected slowly into the thighs of each mouse one hour prior to imaging. The right thigh mixture also contained 15 U of MPO and 4 U of glucose oxidase (Calbiochem), while the left thigh mixture contained no enzyme and thus serves as an internal control. A total of 15 mice were used (3 mice each for 5-HT-DOTA(Gd), bis-5-HT-DTPA(Gd), bis-5-HT-DTPA-^111In, bis-tyramide-DTPA(Gd), and DTPA(Gd)). • 2. LPS/Matrigel experiments (n=3): This model was developed to induce endogeneous mouse MPO secretion and activation. 200 μL total volume Matrigel containing 10% heparin was injected slowly into the thighs of the mice 4 days prior to imaging. The right-sided mixture also contained E. coli lipopolysaccharide (LPS) at 10 μg/mL. One mouse was sacrificed for immunohistochemistry. • 3. Myositis experiments (n=4): LPS at 100 μg/mL in PBS was injected into each mouse intramuscularly in the right flank to produce myositis. The mice are imaged 24 hours after injection.
For normalized signal intensity measured on T1-weighted images, mean±standard deviation (SD) values were calculated in regions of interest (ROI). Contrast-to-noise (CNR) ratios were computed for each ROI according to the formula

endogenous mouse MPO [2] = target: T2, endogenous mouse MPO (Mus musculus, UniProt P11247); assay: LPS induced myositis, MR imaging at 4.7 T; type: in vivo; conditions: mice with LPS induced myositis
T2 construct: endogenous in cells; host or cells: inflammatory cells recruited by LPS in C57BL6 male mice (Matrigel site in the thigh, or flank muscle myositis)
T2 sequence (P11247 139-718): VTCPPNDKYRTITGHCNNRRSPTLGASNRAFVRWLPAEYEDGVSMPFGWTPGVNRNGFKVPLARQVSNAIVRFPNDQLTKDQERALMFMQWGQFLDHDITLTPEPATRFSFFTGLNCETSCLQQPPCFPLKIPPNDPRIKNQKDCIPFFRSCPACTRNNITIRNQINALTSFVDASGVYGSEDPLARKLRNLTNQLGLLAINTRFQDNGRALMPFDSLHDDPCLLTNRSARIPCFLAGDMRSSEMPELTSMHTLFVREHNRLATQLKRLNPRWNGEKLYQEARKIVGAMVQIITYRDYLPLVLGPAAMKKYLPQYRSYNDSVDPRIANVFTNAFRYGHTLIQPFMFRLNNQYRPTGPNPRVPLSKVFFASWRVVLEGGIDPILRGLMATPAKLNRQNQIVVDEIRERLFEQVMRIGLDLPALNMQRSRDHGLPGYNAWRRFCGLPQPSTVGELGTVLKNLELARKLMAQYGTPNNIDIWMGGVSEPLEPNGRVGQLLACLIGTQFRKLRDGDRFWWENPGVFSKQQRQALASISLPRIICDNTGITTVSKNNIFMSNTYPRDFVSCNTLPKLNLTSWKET
Procedure: as §1
(§2) Ten-week old C57BL6 male mice were obtained from Jackson Laboratories. A total of 22 mice were used for the study. • 1. MPO/Matrigel imaging experiments: Matrigel™ (Beckton-Dickinson), a […] basement membrane matrix gel was used to immobilize human MPO and glucose oxidase (to supply H2O2 required for detecting MPO oxidative activity, Calbiochem). This was chosen to reflect deposits of human MPO in inflamed tissue in a mouse model. 400 μL of a mixture of Matrigel™ and MEM (Cambrex) was injected slowly into the thighs of each mouse one hour prior to imaging. The right thigh mixture also contained 15 U of MPO and 4 U of glucose oxidase (Calbiochem), while the left thigh mixture contained no enzyme and thus serves as an internal control. […]

endogenous mouse MPO [3] = target: T2, endogenous mouse MPO; assay: LPS/Matrigel experiments, MR imaging; type: in vivo; conditions: mice; LPS/Matrigel
Procedure: as §1, §2

[4] = target: T3, horseradish peroxidase (HRP) (Armoracia rusticana, UniProt P00433); assay: Ga-3 as oxidoreductase reducing substrate, UV-visible spectra with HRP/H2O2; type: biochemical; design: purchased Sigma; conditions: after approximately 2 hours
T3 sequence (P00433 31-338): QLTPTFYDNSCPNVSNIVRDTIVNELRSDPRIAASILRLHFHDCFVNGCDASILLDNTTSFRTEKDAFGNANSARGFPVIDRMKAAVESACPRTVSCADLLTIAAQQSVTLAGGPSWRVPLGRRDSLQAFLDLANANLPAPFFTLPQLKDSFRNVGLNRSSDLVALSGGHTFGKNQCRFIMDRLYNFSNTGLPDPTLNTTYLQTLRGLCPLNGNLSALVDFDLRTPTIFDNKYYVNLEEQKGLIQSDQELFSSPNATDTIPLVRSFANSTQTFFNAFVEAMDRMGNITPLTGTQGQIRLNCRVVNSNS
From the text: (§3) Compound Ga-3 was further tested in vitro as an oxidoreductase reducing substrate. In a preliminary experiment, horseradish peroxidase (HRP), a model oxidoreductase, was used to test the possibility of enzyme-induced oligomerization. […] Well-defined aromatic band centered at 280 nm broadened over the reaction time and extended beyond 330 nm with some residual absorption in the region 350-500 nm. Extension towards the visible range is associated with the extension of the aromatic system as could be expected in the event of oligomerization. After 6 hours no change was observed and the reaction reaches levels close to 90% of conversion after approximately 2 hours. If MPO was used instead of HRP, the obtained results (see FIG. 20C) were similar.

MPO [5] = target: T4, MPO (Homo sapiens, UniProt P05164); assay: Ga-3 as oxidoreductase reducing substrate, UV-visible spectra with MPO; type: biochemical
T4 sequence (P05164 49-745): T1 sequence (P05164 49-745)
From the text: as §3

[6] = Biodistribution of 67Ga tracer; type: in vivo, mouse; conditions: mice n=4; 6 hours after the injection
Procedure: (§4) SPECT imaging and biodistribution: A solution of 80-100 μCi of [^67Ga]—I in 200 μl of saline were injected intravenously into mice prepared as follows: ten-week old C57BL6 male mice (Jackson Laboratories) were injected with 400 μL of a mixture of Matrigel™ (Beckton-Dickinson) and MEM (Cambrex) into the thighs of each mouse one hour prior to imaging. The right thigh mixture also contained 15 U of MPO and 4 μg of glucose oxidase (Calbiochem), while the left thigh mixture contained no enzyme to serve as an internal control. Glucose oxidase was included to ensure local generation of hydrogen peroxide. The animals were imaged 3 hours after injection on a high resolution X-SPECT/CT system (Gamma Medica). Six hours after injection, the animals were sacrificed and biodistribution was determined in major organs. The % dose accumulated per gram of major organs was determined by using a gamma counter.

MPO [7] = target: T4, MPO; assay: SPECT/CT imaging of MPO/Matrigel implants with 67Ga tracer; type: in vivo, mouse
Procedure: as §4, with “The animals were imaged 3 hours after injection on a high resolution X-SPECT/CT system (Gamma Medica).” left out
To test our hypothesis in vivo, we prepared an inflammation model in mice. The model consisted in the subcutaneous implantation (1 hour before radiotracer injection) of Matrigel/MPO/GO mixture in the right thigh of each mouse. The left thigh mixture contained no enzyme and served as internal control. Matrigel is a basement membrane matrix gel that can be used for immobilizing human MPO and peroxide-generating enzyme. After injecting [^67Ga]—I intravenously, SPECT/CT imaging was performed 4 hours later.

## O=C([O-])CN(CCN(CC(=O)[O-])CC(=O)O)CCN(CC(=O)[O-])CC(=O)O.[Gd+3] [DTPA(Gd), reference compound]
[1]
  enhancement of MPO implant compared with control implant: no visual difference or CNR difference
[1]; listed as Magnevist
  enhancement of MPO implant compared with control implant: did not show any difference
Endogenous mouse MPO [2]
  enhancement at 50 minutes after injection: significant wash-out of the enhancement
Endogenous mouse MPO [3]
  difference in enhancement LPS side vs control: no significant difference in enhancement

## CC(=O)N1CCCCCNC(=O)CCC(=O)N2CCCCCNC(=O)CCC(=O)N(CCCCCNC(=O)Cc3c[nH]c4ccc(O)cc34)[O][Ga]([O]1)[O]2 [Ga-3]
[4]
  conversion: ~90%
MPO [5]
  result with MPO compared with HRP: similar

## CC(=O)N1CCCCCNC(=O)CCC(=O)N2CCCCCNC(=O)CCC(=O)N(CCCCCNC(=O)Cc3c[nH]c4ccc(O)cc34)[O][67Ga]([O]1)[O]2 [[^67Ga]-3]
[6]
  residual radioactivity in liver: ~1.4%
  residual radioactivity in the bowel: ~7.8%
  residual radioactivity in the rest of the organs: below 0.5%
MPO [7]; mice, 6 hours after the injection
  difference between right (MPO) and left (control) thigh: around 60%
MPO [7]; mouse SPECT/CT fusion images
  intensity of MPO implant vs control implant: higher intensity

Source: US8153784B2, “Imaging of enzyme activity” (The General Hospital Corporation, priority 2004, dated 2012)
